The text below walks through data of PMC8954575, “Norepinephrine and Serotonin Can Modulate the Behavior of the Probiotic Enterococcus faecium NCIMB10415 towards the Host: Is a Putative Surface Sensor Involved?” (Microorganisms, 2022).

For the assay, the target named is T1, VicK (WalK) (Enterococcus faecium, UniProt Q3XYG9).
T1 construct: VicK (WalK) from a synthetic codon-optimized gene in pET-15b, N-terminal His-tag, purified from E. coli BL21 with DDM, RED-NHS labelled
T1 sequence (Q3XYG9 1-611): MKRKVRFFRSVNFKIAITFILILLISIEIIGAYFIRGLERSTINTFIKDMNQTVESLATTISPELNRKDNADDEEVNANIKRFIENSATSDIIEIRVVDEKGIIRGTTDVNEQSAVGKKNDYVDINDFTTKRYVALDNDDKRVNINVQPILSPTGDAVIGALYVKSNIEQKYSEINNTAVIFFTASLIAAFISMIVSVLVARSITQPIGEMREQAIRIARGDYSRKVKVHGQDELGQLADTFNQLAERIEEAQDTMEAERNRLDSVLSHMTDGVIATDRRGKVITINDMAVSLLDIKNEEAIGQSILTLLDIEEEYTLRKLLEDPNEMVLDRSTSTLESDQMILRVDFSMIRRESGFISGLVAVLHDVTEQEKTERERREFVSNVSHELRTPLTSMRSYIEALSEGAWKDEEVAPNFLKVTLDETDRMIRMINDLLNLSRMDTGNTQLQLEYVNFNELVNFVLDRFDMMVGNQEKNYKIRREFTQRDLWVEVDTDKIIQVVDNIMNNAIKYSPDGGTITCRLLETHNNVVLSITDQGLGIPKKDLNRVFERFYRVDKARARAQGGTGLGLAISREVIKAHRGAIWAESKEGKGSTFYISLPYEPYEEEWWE
Put plainly: Micro-Scale Thermophoresis with purified labelled protein. In kind it is binding.

A word on the Kd: it is the constant that tells how readily two partners part at equilibrium.

With `NCCc1c[nH]c2ccc(O)cc12` [5HT, serotonin], the Kd was 4.5 ± 0.07 mM.
